Reference: PMC5608804, “Stepwise Evolution Improves Identification of Diverse Peptides Binding to a Protein Target” (Scientific Reports, 2017)

molecular target: T1, streptavidin (Streptomyces avidinii, UniProt P22629); assay: Cy5-streptavidin binding on HotSpot discovery array, 5-mer L-peptide library; conditions: 5-mer L-peptide library array, Cy5-streptavidin; from average of three arrays
T1 construct: purchased GE Healthcare (Little Chalfont, UK)
How it was run: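 Array of 2,476,099 5-mer peptides (19 amino acids, no cysteine) with Gly-Ser linkers, probed overnight at 4 °C with 0.5 µg/ml Cy5-streptavidin in Tris pH 7.4 buffer containing casein or BSA plus Tween-20. Cy5 fluorescence read at 635 nm; peptides selected by signal-to-background >4 across three arrays.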

T1 sequence (P22629 25-183): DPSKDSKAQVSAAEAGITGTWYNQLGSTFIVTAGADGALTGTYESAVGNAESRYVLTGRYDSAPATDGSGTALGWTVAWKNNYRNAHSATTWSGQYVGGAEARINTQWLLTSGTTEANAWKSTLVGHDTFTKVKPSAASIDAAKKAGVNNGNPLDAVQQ

| Substance | S/B (signal to background ratio) |
| --- | --- |
| RDHPQ | 132.4 |
| RKHPQ | 46.9 |
| YRHPQ | 185.8 |
| MPHPQ | 180.4 |
| NRHPM | 48.6 |
| HPMGQ | 20.5 |
| SGHPM | 54.4 |
| TRHPQ | 156.2 |
| PFHPQ | 193.0 |
| PNHPQ | 144.0 |
| QHPQM | 40.0 |
| GMHPM | 38.8 |
| WQHPQ | 199.1 |
| HYHPQ | 184.3 |
| PPHPM | 53.6 |
| HPQRG | 33.4 |
| HDHPM | 51.4 |
| HPQQG | 47.0 |
| HPQGE | 40.1 |
| EDHPQ | 34.6 |
| PLHPM | 39.0 |
| LASYH [L-amino acid 5-mer array peptide] | 25.7 |
| HPQYA | 20.2 |
| HNHPQ | 146.9 |
| IHPQA | 150.7 |

| Substance | S/B (signal to background ratio) |
| --- | --- |
| HHPMN | 25.7 |
| SPHPQ | 145.4 |
| RVHPQ | 126.3 |
| EQHPQ | 43.8 |
| NHPQM | 39.3 |
| FHPQW | 22.2 |
| WVHPQ | 169.6 |
| LHHPQ | 188.8 |
| YHPMV | 20.3 |
| SHPMS | 25.8 |
| MVHPM | 33.8 |
| KWHPQ | 127.9 |
| WHHPQ | 200.9 |
| FAHPQ | 186.9 |
| HPQMS | 20.7 |
| IMHPM | 35.1 |
| RMHPQ | 119.1 |
| LFHPQ | 138.2 |
| SSHPM | 50.5 |
| WQHPM | 142.1 |
| TNHPQ | 135.8 |
| WGHPQ | 216.3 |
| VHHPQ | 141.1 |
| EGHPM | 22.4 |
| HPQFP | 141.5 |

| Substance | S/B (signal to background ratio) |
| --- | --- |
| NAHPM | 36.0 |
| MHPQA | 138.1 |
| VHPQF | 135.2 |
| PTHPQ | 130.7 |
| TQHPQ | 120.0 |
| HPQND | 53.5 |
| TFHPQ | 156.9 |
| GHPQM | 40.8 |
| SLHPQ | 133.4 |
| WHPMV | 49.4 |
| TMHPM | 25.5 |
| DHPQS | 49.1 |
| GRHPQ | 136.4 |
| FFHPQ | 192.2 |
| HPMAP | 37.9 |
| HTHPQ | 139.1 |
| YHPMM | 31.1 |
| ITHPM | 41.5 |
| EHPQV | 41.0 |
| NTHPQ | 133.1 |
| SGHPQ | 128.5 |
| YNHPQ | 193.0 |
| YTHPQ | 174.6 |
| MHPQQ | 29.0 |
| LSHPQ | 156.2 |

| Substance | S/B (signal to background ratio) |
| --- | --- |
| EMHPQ | 44.9 |
| MIHPM | 32.1 |
| LGPFH [L-amino acid 5-mer array peptide] | 51.1 |
| QYHPQ | 195.0 |
| IRHPQ | 165.9 |
| VMHPQ | 127.9 |
| MQHPM | 43.9 |
| PHPQQ | 53.1 |
| IWHPQ | 174.8 |
| PPHPQ | 150.0 |
| HPQVD | 33.5 |
| WRHPQ | 235.3 |
| FDHPQ | 121.8 |
| PSHPQ | 136.6 |
| AHHPQ | 131.6 |
| FHPQG | 146.3 |
| PHPMV | 24.7 |
| HPQNE | 48.0 |
| QHPQH | 52.4 |
| FVHPQ | 150.1 |
| QHPQN | 143.0 |
| THPQH | 42.7 |
| VHPQQ | 30.0 |
| TRHPM | 53.7 |
| HFHPQ | 174.7 |

same assay, conditions: 5-mer L-peptide library array, Cy5-streptavidin; from the average of three arrays

| Substance | S/B (signal to background ratio) |
| --- | --- |
| KMHPQ | 80.4 |
| AHPMA | 60.9 |
| DLHPQ | 60.4 |
| FYHPM | 99.8 |
| DGHPQ | 62.6 |
| MHPQS | 75.9 |
| NIHPQ | 100.3 |
| ANHPQ | 115.8 |
| QHPQF | 117.5 |
| WKHPM | 66.5 |
| HYHPM | 88.3 |
| HPQVG | 114.3 |
| FMHPM | 101.3 |
| LKHPQ | 83.5 |
| HPQFN | 113.3 |
| HDHPQ | 112.6 |
| GHPQA | 110.5 |

| Substance | S/B (signal to background ratio) |
| --- | --- |
| DAHPQ | 62.6 |
| PDHPQ | 72.7 |
| SHPQV | 98.7 |
| HPMGG | 60.6 |
| HPQGH | 86.0 |
| FLHPM | 84.7 |
| MIHPQ | 97.1 |
| QDHPQ | 81.1 |
| PHPQV | 97.2 |
| NRHPQ | 115.2 |
| LGHPM | 76.1 |
| KPHPQ | 117.2 |
| FHHPM | 95.4 |
| YHPQQ | 76.2 |
| YAHPM | 87.4 |
| QWHPM | 72.2 |

same assay, conditions: 5-mer L-peptide library, from the average of three arrays

| Substance | S/B (signal to background ratio) |
| --- | --- |
| HPQYL | 4.7 |
| HPMNY | 4.6 |
| LAFFH [L-amino acid 5-mer array peptide] | 4.9 |
| HPQPW | 4.6 |
| YHFPQ | 4.9 |
| FDEWL [L-amino acid 5-mer array peptide] | 4.8 |
| FMFMI [L-amino acid 5-mer array peptide] | 4.3 |
| SHPQL | 4.4 |
| FHPMW | 5.1 |
| MHPMI | 4.7 |
| FDDFL [L-amino acid 5-mer array peptide] | 5.0 |
| HPWRH | 5.0 |
| WHVPQ | 4.3 |
| HPMRF | 4.6 |
| HPQIP | 4.0 |
| GHPMK | 4.0 |
| WHPNR | 5.2 |
| YWTDG [L-amino acid 5-mer array peptide] | 4.7 |
| HPMQF | 4.9 |

same assay, conditions: average of three arrays, L-peptide 5-mer library

| Substance | S/B (signal to background ratio) |
| --- | --- |
| MAKHF [L-amino acid 5-mer array peptide] | 5.4 |
| LAFFH [L-amino acid 5-mer array peptide] | 4.9 |
| FDEWL [L-amino acid 5-mer array peptide] | 4.8 |
| FMFMI [L-amino acid 5-mer array peptide] | 4.3 |
| MPWRN [L-amino acid 5-mer array peptide] | 5.2 |
| LASYH [L-amino acid 5-mer array peptide] | 25.7 |
| FDDFL [L-amino acid 5-mer array peptide] | 5.0 |
| LARYH [L-amino acid 5-mer array peptide] | 12.2 |
| MALHF [L-amino acid 5-mer array peptide] | 8.0 |
| YWTDG [L-amino acid 5-mer array peptide] | 4.7 |
| LGPFH [L-amino acid 5-mer array peptide] | 51.1 |
| NWDQW [L-amino acid 5-mer array peptide] | 6.7 |
| LAKYH [L-amino acid 5-mer array peptide] | 12.2 |

same assay, conditions: signal to background ratio; 5-mer L-peptide library array, Cy5-streptavidin

| Substance | S/B |
| --- | --- |
| AHPMY | 7.7 |
| HPQSF | 13.1 |
| RHPMY | 14.4 |
| MAKHF [L-amino acid 5-mer array peptide] | 5.4 |
| DHPMN | 12.4 |
| QHPQI | 14.9 |
| HPQYY | 9.4 |
| HPMFV | 7.5 |
| WHPPQ | 9.3 |
| HPMRN | 8.8 |
| HPQIN | 12.2 |
| MPWRN [L-amino acid 5-mer array peptide] | 5.2 |
| HPQHV | 13.6 |
| KHPMY | 6.0 |
| HPQQW | 16.8 |
| FHPMF | 14.7 |
| IHPQD | 10.4 |
| HPMGV | 9.2 |
| HPMNA | 17.1 |
| HPMMA | 5.3 |
| HPQTA | 10.4 |

| Substance | S/B |
| --- | --- |
| PHPQD | 15.6 |
| QHPMR | 9.5 |
| VHPMQ | 9.6 |
| AHPQK | 12.1 |
| HPQHS | 18.1 |
| LARYH [L-amino acid 5-mer array peptide] | 12.2 |
| HPQPG | 5.6 |
| NHPQK | 14.8 |
| VHPMN | 13.1 |
| MHPQK | 9.8 |
| HPMHP | 14.9 |
| HPVPP | 12.4 |
| MALHF [L-amino acid 5-mer array peptide] | 8.0 |
| HPMGH | 15.2 |
| HPQKG | 18.2 |
| HPMGT | 12.0 |
| HPQIF | 6.3 |
| NWDQW [L-amino acid 5-mer array peptide] | 6.7 |
| HPQYQ | 15.5 |
| LAKYH [L-amino acid 5-mer array peptide] | 12.2 |
| HPQMR | 7.1 |
